Results reported in EP0745595A1, “3-(3-Aryloxyphenyl)-1-(substituted methyl)-s-triazine-2,4,6-oxo or thiotrione herbicidal agents” (American Cyanamid Company, priority 1995, dated 1996).

What was measured:
Format in all cases: in vivo
[1] = test system: SETARIA VIRIDIS, (L) BEAU; experiment: Preemergence herbicidal evaluation, SETVI (Foxtail, Green); conditions: four to five weeks after treatment
Text: (§1) Results of herbicide evaluation are expressed on a rating scale (0-9). The scale is based upon a visual observation of plant stand, vigor, malformation, size, chlorosis and overall plant appearance as compared with a control.
(§2) The preemergence herbicidal activity of the test compounds of the present invention is exemplified by the following tests in which the seeds of a variety of monocotyledonous and dicotyledonous plants are separately mixed with potting soil and planted on top of approximately one inch of soil in separate pint cups. […] The treated cups are then placed on greenhouse benches, watered and cared for in accordance with conventional greenhouse procedures. From four to five weeks after treatment, the tests are terminated and each cup is examined and rated according to the rating system provided in Example 40.
(§3) The compounds evaluated are reported by compound number given in Example 40.

CASSIA OBTUSIFOLIA, L. = experiment: Preemergence herbicidal evaluation, CASOB (Sicklepod); conditions: four to five weeks after treatment
Method in brief: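 Preemergence herbicidal activity against sicklepod was assessed by planting seed mixed with potting soil atop about one inch of soil in pint cups. After treatment the cups were watered and handled per standard greenhouse practice. Tests ended four to five weeks later, with plant stand, vigor, malformation, size, chlorosis and overall appearance scored 0-9 relative to a control.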

[…], PRESL. = Preemergence weed control under flooded paddy conditions, MOOVA (Monochoria); conditions: preemergence weeds, rated three to four weeks after treatment
Method in brief: (§4)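 In undrained pots of silt loam flooded to 1.5-3 cm, compounds are pipetted into the water before emergence at the equivalent of about 0.5, 0.25, 0.125 and 0.063 kg/ha. Plants are scored 0-9 for stand, vigor, malformation, size and chlorosis at test end (3-4 weeks).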

[2] = test system: CYPERUS SEROTINUS, ROTTB.; experiment: Preemergence weed control under flooded paddy conditions, CYPSE (Flatsedge); conditions: preemergence weeds, rated three to four weeks after treatment
Method in brief: as §4

CHENOPODIUM ALBUM, L. [3] = experiment: Postemergence herbicidal evaluation, CHEAL (Lambsquarters, Common); conditions: rated four to five weeks after treatment, averaged
Method in brief: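 Postemergence herbicidal activity on Chenopodium album was tested by spraying two-week-old seedlings grown in jiffy flats with compound in acetone/water (50/50) plus 0.5% TWEEN®20, using a 40 psi nozzle. Four to five weeks after treatment, stand, vigor, malformation, size, chlorosis and overall appearance were scored 0-9 relative to controls, with repeat tests averaged.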

[4] = test system: ABUTILON THEOPHRASTI, MEDIC.; experiment: Postemergence herbicidal evaluation, ABUTH (Velvetleaf); conditions: rated four to five weeks after treatment, averaged
Method in brief: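 This postemergence herbicide test used two-week-old velvetleaf seedlings grown in jiffy flats. Each compound was sprayed at 40 psi as a dispersion in 50/50 acetone/water with 0.5% TWEEN®20 surfactant. Plants then received routine greenhouse care. After four to five weeks, injury was scored visually on a 0-9 scale against a control, and replicate tests were averaged.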

[5] = test system: TRITICUM AESTIVUM, CV. APOLLO; experiment: Preemergence herbicidal evaluation, TRZAWO (Wheat, Winter, CV. APOLLO); conditions: four to five weeks after treatment
Method in brief: (§5)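 Preemergence, greenhouse: seed + potting soil sown on ~1 inch soil in cups; aqueous acetone spray, ~0.125–0.50 kg/ha equivalent; rated 0-9 vs control at 4–5 wk.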

SAGITTARIA PYGMAEA, L. = experiment: Preemergence weed control under flooded paddy conditions, SAGPY (Arrowhead (Pygmaea)); conditions: preemergence weeds, rated three to four weeks after treatment
Method in brief: as §4

CYPERUS IRIA = experiment: Preemergence weed control under flooded paddy conditions, CYPIR (Rice Flatsedge); conditions: preemergence weeds, rated three to four weeks after treatment
Method in brief: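 This preemergence test mimicked flooded paddy conditions: rice flatsedge propagules were sown in the upper 0.5 cm of silt loam in undrained 32 oz. containers (10.5 cm diameter), with water held 1.5 to 3 cm over the soil. After normal greenhouse care, plants were scored 0-9 for stand, vigor, malformation, size, chlorosis and appearance relative to controls.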

[6] = test system: ORYZA SATIVA, L. TEBONNET; experiment: Preemergence herbicidal evaluation, ORYSAT (Rice, Tebonnet); conditions: four to five weeks after treatment
Text: as §1, §2, §3

[7] = test system: ECHINOCHLOA CRUS-GALLI, (L) BEAU; experiment: Preemergence herbicidal evaluation, ECHCG (Barnyardgrass); conditions: four to five weeks after treatment
Method in brief: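 In this preemergence herbicide test, cups holding seeds of ECHCG sown in potting soil over roughly one inch of soil were treated and then grown under conventional greenhouse care. Tests were ended four to five weeks after treatment, and injury was scored 0-9 from stand, vigor, malformation, size, chlorosis and overall appearance relative to a control.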

[8] = test system: GLYCINE MAX(L) MERR. CV. WILLIAMS; experiment: Preemergence herbicidal evaluation, GLXMAW (Soybean, Williams); conditions: four to five weeks after treatment
Method in brief: as §5

[9] = test system: ABUTILON THEOPHRASTI, MEDIC.; experiment: Preemergence herbicidal evaluation, ABUTH (Velvetleaf); conditions: four to five weeks after treatment
Text: as §1, §2, §3

[10] = test system: AMBROSIA ARTEMISIIFOLIA, L.; experiment: Preemergence herbicidal evaluation, AMBEL (Ragweed, Common); conditions: four to five weeks after treatment
Method in brief: as §5

CHENOPODIUM ALBUM, L. [11] = experiment: Preemergence herbicidal evaluation, CHEAL (Lambsquarters, Common); conditions: four to five weeks after treatment
Method in brief: as §5

[12] = test system: ORYZA SATIVA, L. TEBONNET; experiment: Rice tolerance to post-transplant applications under flooded paddy conditions, ORYSAT (Rice, Tebonnet); conditions: post-transplant rice, rated three to four weeks after treatment;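 note: applied to flooded soil surface three days after transplanting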
Method in brief: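 Greenhouse pots of silt loam, each with two transplanted ten-day-old seedlings, are held under 1.5 to 3 cm of standing water. Three days later the compound is applied to the flooded surface at about 0.5, 0.25, 0.125 or 0.063 kg/ha. Damage is scored visually 0-9 after 3-4 weeks.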

ZEA MAYS L. = experiment: Preemergence herbicidal evaluation, ZEAMX (Corn, Field); conditions: four to five weeks after treatment
Method in brief: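 Preemergence herbicidal activity on field corn: seeds in potting soil were sown atop roughly one inch of soil in separate pint cups, treated, and grown under standard greenhouse care. Four to five weeks post-treatment, stand, vigor, malformation, size, chlorosis and overall appearance were compared with a control and scored 0-9.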

## CCOC(=O)Cn1c(=O)[nH]c(=O)n(-c2cc(Oc3c(F)cc(C(F)(F)F)cc3Cl)ccc2C#N)c1=O [Compound 10, Ethyl 3-{5-[(2-chloro-α,α,α,6-tetrafluoro-p-tolyl)oxy]-2-cyanophenyl}tetrahydro-2,4,6-trioxo-s-triazine-1(2H)-acetate]
[1]; Rate 0.125 kg/ha
  SETVI rating: 0.0
[1]; Rate 0.250 kg/ha
  SETVI rating: 0.0
[1]; Rate 0.500 kg/ha
  SETVI rating: 0.0
CASSIA OBTUSIFOLIA, L.; Rate 0.125 kg/ha
  CASOB rating: 0.0
CASSIA OBTUSIFOLIA, L.; Rate 0.250 kg/ha
  CASOB rating: 0.0
CASSIA OBTUSIFOLIA, L.; Rate 0.500 kg/ha
  CASOB rating: 0.0
[…], PRESL.; Rate 0.063 kg/ha
  MOOVA herbicidal rating: 9.0
[…], PRESL.; Rate 0.125 kg/ha
  MOOVA herbicidal rating: 9.0
[…], PRESL.; Rate 0.250 kg/ha
  MOOVA herbicidal rating: 9.0
[…], PRESL.; Rate 0.500 kg/ha
  MOOVA herbicidal rating: 9.0
[2]; Rate 0.063 kg/ha
  CYPSE herbicidal rating: 0.0
[2]; Rate 0.125 kg/ha
  CYPSE herbicidal rating: 0.0
[2]; Rate 0.250 kg/ha
  CYPSE herbicidal rating: 0.0
CHENOPODIUM ALBUM, L. [3]; Rate 0.125 kg/ha
  CHEAL, herbicide rating (0-9): 9.0
CHENOPODIUM ALBUM, L. [3]; Rate 0.250 kg/ha
  CHEAL, herbicide rating (0-9): 9.0
CHENOPODIUM ALBUM, L. [3]; Rate 0.500 kg/ha
  CHEAL, herbicide rating (0-9): 9.0
[4]; Rate 0.125 kg/ha
  ABUTH, herbicide rating (0-9): 9.0
[4]; Rate 0.250 kg/ha
  ABUTH, herbicide rating (0-9): 9.0
[4]; Rate 0.500 kg/ha
  ABUTH, herbicide rating (0-9): 9.0
[5]; Rate 0.125 kg/ha
  TRZAWO rating: 0.0
[5]; Rate 0.250 kg/ha
  TRZAWO rating: 0.0
[5]; Rate 0.500 kg/ha
  TRZAWO rating: 0.0
SAGITTARIA PYGMAEA, L.; Rate 0.063 kg/ha
  SAGPY herbicidal rating: 0.0
SAGITTARIA PYGMAEA, L.; Rate 0.125 kg/ha
  SAGPY herbicidal rating: 0.0
SAGITTARIA PYGMAEA, L.; Rate 0.250 kg/ha
  SAGPY herbicidal rating: 0.0
SAGITTARIA PYGMAEA, L.; Rate 0.500 kg/ha
  SAGPY herbicidal rating: 0.0
CYPERUS IRIA; Rate 0.063 kg/ha
  CYPIR herbicidal rating: 9.0
CYPERUS IRIA; Rate 0.125 kg/ha
  CYPIR herbicidal rating: 9.0
CYPERUS IRIA; Rate 0.250 kg/ha
  CYPIR herbicidal rating: 9.0
CYPERUS IRIA; Rate 0.500 kg/ha
  CYPIR herbicidal rating: 9.0
[6]; Rate 0.125 kg/ha
  ORYSAT rating: 2.0
[6]; Rate 0.250 kg/ha
  ORYSAT rating: 2.0
[6]; Rate 0.500 kg/ha
  ORYSAT rating: 2.0
[7]; Rate 0.125 kg/ha
  ECHCG rating: 0.0
[7]; Rate 0.250 kg/ha
  ECHCG rating: 0.0
[7]; Rate 0.500 kg/ha
  ECHCG rating: 0.0
[8]; Rate 0.125 kg/ha
  GLXMAW rating: 0.0
[8]; Rate 0.250 kg/ha
  GLXMAW rating: 0.0
[8]; Rate 0.500 kg/ha
  GLXMAW rating: 0.0
[9]; Rate 0.125 kg/ha
  ABUTH rating: 0.0
[9]; Rate 0.250 kg/ha
  ABUTH rating: 0.0
[9]; Rate 0.500 kg/ha
  ABUTH rating: 0.0
[10]; Rate 0.125 kg/ha
  AMBEL rating: 0.0
[10]; Rate 0.250 kg/ha
  AMBEL rating: 0.0
[10]; Rate 0.500 kg/ha
  AMBEL rating: 0.0
CHENOPODIUM ALBUM, L. [11]; Rate 0.125 kg/ha
  CHEAL rating: 9.0
CHENOPODIUM ALBUM, L. [11]; Rate 0.250 kg/ha
  CHEAL rating: 9.0
CHENOPODIUM ALBUM, L. [11]; Rate 0.500 kg/ha
  CHEAL rating: 9.0
[12]; Rate 0.063 kg/ha
  ORYSAT herbicidal rating (rice tolerance): 0.0
[12]; Rate 0.125 kg/ha
  ORYSAT herbicidal rating (rice tolerance): 1.0
[12]; Rate 0.250 kg/ha
  ORYSAT herbicidal rating (rice tolerance): 1.0
[12]; Rate 0.500 kg/ha
  ORYSAT herbicidal rating (rice tolerance): 1.0
ZEA MAYS L.; Rate 0.125 kg/ha
  ZEAMX rating: 0.0
ZEA MAYS L.; Rate 0.250 kg/ha
  ZEAMX rating: 0.0
ZEA MAYS L.; Rate 0.500 kg/ha
  ZEAMX rating: 0.0
